The test system of this test is nerve cells in hippocampus CA1 region of hippocampus sections. The experiment in a line: long-term potentiation of excitatory postsynaptic potential (EPSP) in hippocampus sections, accumulated potential with single glass electrode. Format: cell-based, rat. Conditions: for EPSP reaction (ratio of largest slope value of accumulated potential to basal slope value defined as 100%): read 60 minutes after stimulation. Here is the method:
A specific example of the assessment of substances with antidepressant actions by the screening method is described below. At the cell preparation step in the Example, the brain hippocampus of an adult rat was cut vertically along the longitudinal axis using vibratome (DSK ZERO1, manufactured by DOUSAKA EM K.K), to prepare plural longitudinal cross- sectional sections of a thickness of 400 μm. In this Example, a part of the hippocampus sections is prepared as a candidate substance treatment group, while another part of the hippocampus sections is prepared as a control treatment group and an additional part of the hippocampus sections is prepared as non-treatment group. These hippocampus sections were immersed in an artificial cerebrospinal fluid sufficiently saturated with a mixture gas of oxygen and carbon dioxide (95% oxygen gas, 5% carbon dioxide gas) and left to stand at room temperature for 1.5 hours or more under the purge of the mixture gas from the above over the hippocampus sections. Thereafter, the electrophysiological response was assayed as described below. As the artificial cerebrospinal fluid, an aqueous solution containing 124 mM NaCl, 1.25 mM NaH2PO4.2H2O, 5 mM KCl, 2 mM MgSO4.7H2O, 2 mM CaCl2, 22 mM NaHCO3, and 10 mM glucose was used. […] At the cell preparation step, additionally, the presynaptic fibers in the CA1 regions of the hippocampus sections were repeatedly stimulated at an interval of 20 seconds, using the stimulation electrode, while excitatory postsynaptic potential induced by the electric stimulation was recorded as accumulated potential over about 30 minutes. […] Therefore, it was determined to assess the dimension of the slope in the part M with the most rapid change of the accumulated potential on the stimulation [namely, the largest slope on the earlier side of the assay time period of accumulated potential waveform (on the left side)] […]

Each structure is given as a SMILES string.

`C[C@]12C[C@H](O)[C@H]3[C@@H](CCC4=CC(=O)CC[C@@]43C)[C@@H]1CC[C@@H]2C(=O)CO` [corticosteron]: the “reduction of the level of the long-term potentiation [dimension (%) of EPSP reaction]” value (contact to corticosteron 1 μM versus non-treatment group, 60 minutes after high-frequency stimulation) was “about 20%”. Moreover, where the note is “corticosteron 1 μM alone perfused 30 minutes before 100-Hz high-frequency stimulation, non-treatment group about 130%”, the “EPSP reaction (ratio of largest slope value of accumulated potential to basal slope value defined as 100%)” value is listed as “about 110%”. Turning to `C[C@]12CC[C@@H]3c4ccc(O)cc4CC[C@H]3[C@@H]1CC[C@@H]2O` [estradiol], the “EPSP reaction (ratio of largest slope value of accumulated potential to basal slope value defined as 100%)” value (estradiol 1 nM together with corticosteron 1 μM perfused 30 minutes before 100-Hz high-frequency stimulation) is “about 130%”.

The values above are taken from patent US20060263760A1, “Screening method of substance with antidepressant action” (THE UNIVERSITY OF TOKYO, priority 2005, published 2006).
